Patent US20260325533A1, “CDK INHIBITOR COMPOUNDS” (ALEKSIA THERAPEUTICS, INC., priority 2023, published 2026)
Like-named read-outs stand apart in the source and are kept apart here.

Legend:
Type in all cases: biochemical
CDK6/CCND1 = CDK6/CCND1 (Homo sapiens, UniProt Q00534); test: CDK6 homogeneous time-resolved fluorescence (HTRF) kinase assay; settings: CDK6/CCND
How it was run: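 Recombinant CDK6/CCND1 (1 nM final) was preincubated with compound for 20 min at 23 °C in HEPES buffer with MgCl2, EGTA, DTT and Tween 20. Kinase reaction then ran 60 min at 23 °C with 1 mM ATP and 50 nM ULight-4E-BP1 (Thr37/46) peptide, and was stopped with EDTA.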

CDK1/CCNB1 = CDK1/CCNB1 (Homo sapiens, UniProt P06493); test: CDK1 homogeneous time-resolved fluorescence (HTRF) kinase assay; settings: CDK1/CCNB
Sequence of CDK1/CCNB1 (P06493 whole entry): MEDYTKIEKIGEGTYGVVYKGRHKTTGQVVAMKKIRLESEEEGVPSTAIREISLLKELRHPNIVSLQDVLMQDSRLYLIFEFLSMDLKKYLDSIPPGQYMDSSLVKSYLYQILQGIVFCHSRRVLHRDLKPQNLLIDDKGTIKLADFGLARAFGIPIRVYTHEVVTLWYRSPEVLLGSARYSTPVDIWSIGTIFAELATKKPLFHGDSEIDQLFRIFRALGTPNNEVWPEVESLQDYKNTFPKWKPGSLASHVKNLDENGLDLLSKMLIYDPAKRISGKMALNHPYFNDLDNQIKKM
Sequence of CDK1/CCNB1 (P14635 whole entry partner): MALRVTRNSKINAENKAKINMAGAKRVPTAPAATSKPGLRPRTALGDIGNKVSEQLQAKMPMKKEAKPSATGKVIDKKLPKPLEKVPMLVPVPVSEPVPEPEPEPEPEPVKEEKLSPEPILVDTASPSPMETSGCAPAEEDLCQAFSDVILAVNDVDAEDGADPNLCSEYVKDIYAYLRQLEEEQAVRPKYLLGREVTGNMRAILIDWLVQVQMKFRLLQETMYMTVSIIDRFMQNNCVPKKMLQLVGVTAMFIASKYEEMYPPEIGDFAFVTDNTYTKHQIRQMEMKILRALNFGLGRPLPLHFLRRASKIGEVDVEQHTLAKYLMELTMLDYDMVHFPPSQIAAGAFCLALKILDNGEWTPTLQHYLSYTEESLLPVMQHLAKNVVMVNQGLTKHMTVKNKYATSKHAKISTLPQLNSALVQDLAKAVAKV
How it was run: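 0.5 nM CDK1/CCNB1 was preincubated 20 min at 23 °C with compound in HEPES pH-unspecified buffer (MgCl2, EGTA, DTT, Tween 20), then reacted 60 min with 1 mM ATP and 50 nM ULight-4E-BP1 (Thr37/46) peptide. EDTA-stopped reactions were detected with 2 nM Eu-anti-phospho antibody; IC50 from 11-point half-log titrations.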

CDK2/CCNE1 = CDK2/CCNE1 (Homo sapiens, UniProt P24941); test: CDK2 homogeneous time-resolved fluorescence (HTRF) kinase assay; settings: CDK2/CCNE
How it was run: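 IC50 derived from 11-point, half-log dilutions (usually top 10 μM) of compound, 1% DMSO. Kinase (3 nM CDK2/CCNE1) was preincubated with compound 20 min, then phosphorylated 50 nM ULight-4E-BP1 peptide at 1 mM ATP for 60 min, 23 °C. Europium-antibody TR-FRET read after EDTA stop.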

CDK4/CCND3 = CDK4/CCND3 (Homo sapiens, UniProt P11802); test: CDK4 homogeneous time-resolved fluorescence (HTRF) kinase assay; settings: CDK4/CCND
Sequence of CDK4/CCND3 (P11802 whole entry): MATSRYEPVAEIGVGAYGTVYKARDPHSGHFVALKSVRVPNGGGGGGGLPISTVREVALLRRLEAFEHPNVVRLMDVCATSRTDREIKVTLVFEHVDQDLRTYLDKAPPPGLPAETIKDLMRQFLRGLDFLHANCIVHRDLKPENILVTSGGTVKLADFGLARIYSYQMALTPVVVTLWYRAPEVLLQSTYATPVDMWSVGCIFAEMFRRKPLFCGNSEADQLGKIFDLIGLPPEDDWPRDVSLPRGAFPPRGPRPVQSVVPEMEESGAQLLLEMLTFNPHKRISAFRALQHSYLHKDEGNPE
Sequence of CDK4/CCND3 (P30281 whole entry partner): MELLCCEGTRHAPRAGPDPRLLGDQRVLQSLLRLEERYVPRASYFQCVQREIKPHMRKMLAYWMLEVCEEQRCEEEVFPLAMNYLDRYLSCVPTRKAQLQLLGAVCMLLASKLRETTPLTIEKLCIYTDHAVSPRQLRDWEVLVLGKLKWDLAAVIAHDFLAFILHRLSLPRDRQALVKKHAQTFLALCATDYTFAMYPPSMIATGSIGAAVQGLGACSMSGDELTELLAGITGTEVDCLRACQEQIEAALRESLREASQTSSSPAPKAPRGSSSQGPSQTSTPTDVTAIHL
How it was run: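 HTRF kinase assay, CDK4/CCND3 1.5 nM, ATP 1 mM, ULight-4E-BP1 peptide 50 nM, 23 °C, 60 min reaction after 20 min preincubation. Eu-anti-pThr37/46 antibody detection. 11-pt half-log curves from 10 μM → IC50.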

[1] = <25 nM, read-out: CDK2/CCNE IC50 <25 nM
[2] = 25-250 nM marked x, read-out: CDK4/CCND IC50 25-250 nM
[3] = x = IC50 >250 nM, read-out: CDK6/CCND IC50 (>250 nM column)
[4] = x = IC50 25-250 nM, read-out: CDK1/CCNB IC50 (25-250 nM)
[5] = x = IC50 <25 nM, read-out: CDK2/CCNE IC50 (<25 nM)
[6] = x = IC50 >250 nM, read-out: CDK4/CCND IC50 (>250 nM column)
[7] = x = IC50 >250 nM, read-out: CDK1/CCNB IC50 (>250 nM column)

Sequence of CDK6/CCND1 (Q00534 whole entry): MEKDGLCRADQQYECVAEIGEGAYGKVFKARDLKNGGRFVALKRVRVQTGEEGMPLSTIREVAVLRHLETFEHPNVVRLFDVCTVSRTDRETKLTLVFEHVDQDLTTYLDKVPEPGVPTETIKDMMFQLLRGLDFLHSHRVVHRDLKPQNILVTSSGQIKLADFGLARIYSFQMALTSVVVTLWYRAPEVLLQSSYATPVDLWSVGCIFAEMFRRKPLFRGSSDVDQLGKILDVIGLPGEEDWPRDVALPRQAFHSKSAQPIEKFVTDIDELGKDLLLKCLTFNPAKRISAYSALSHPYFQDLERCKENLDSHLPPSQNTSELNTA
Sequence of CDK6/CCND1 (P24385 whole entry partner): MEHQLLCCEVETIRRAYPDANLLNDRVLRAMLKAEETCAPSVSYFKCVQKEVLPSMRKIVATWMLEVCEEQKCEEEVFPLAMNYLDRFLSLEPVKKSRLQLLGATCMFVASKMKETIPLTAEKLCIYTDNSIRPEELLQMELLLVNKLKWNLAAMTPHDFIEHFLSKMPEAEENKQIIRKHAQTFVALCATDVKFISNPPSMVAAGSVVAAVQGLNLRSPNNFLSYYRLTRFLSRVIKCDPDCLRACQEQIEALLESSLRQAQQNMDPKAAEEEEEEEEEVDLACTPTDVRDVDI

Compound	IC50 (CDK6/CCND1; [3]) [nM]	IC50 (CDK2/CCNE1; [5]) [nM]	IC50 (CDK4/CCND3; [6]) [nM]	IC50 (CDK1/CCNB1; [7]) [nM]	further results
CS(=O)(=O)c1ccc(Nc2cc3c(C4CCCC4)nccc3cn2)cc1 [Example 23, 5-cyclopentyl-N-(4-(methylsulfonyl)phenyl)-2,6-naphthyridin-3-amine]	–	–	–	–	IC50 (CDK6/CCND1; 25-250 nM marked x, read-out: CDK6/CCND IC50 25-250 nM): 25 to 250 nM; IC50 (CDK1/CCNB1; 25-250 nM marked x, read-out: CDK1/CCNB IC50 25-250 nM): 25 to 250 nM; IC50 (CDK2/CCNE1; [1]): < 25 nM; IC50 (CDK4/CCND3; [2]): 25 to 250 nM
C=CS(=O)(=O)N1CCC(Nc2cc3c(-c4cccc(C#N)c4)nccc3cn2)CC1 [Example 24, 3-(7-((1-(vinylsulfonyl)piperidin-4-yl)amino)-2,6-naphthyridin-1-yl)benzonitrile]	–	–	–	–	IC50 (CDK6/CCND1; <25 nM, read-out: CDK6/CCND IC50 <25 nM): < 25 nM; IC50 (CDK1/CCNB1; >250 nM marked x, read-out: CDK1/CCNB IC50 >250 nM): > 250 nM; IC50 (CDK2/CCNE1; [1]): < 25 nM; IC50 (CDK4/CCND3; [2]): 25 to 250 nM
COCC1(COC)C(=O)Nc2cc(C#Cc3nccc4cnc(Nc5ccc(S(C)(=O)=O)cc5)cc34)ccc21 [Example 360, 3,3-bis(methoxymethyl)-6-((7-((4-(methylsulfonyl)phenyl)amino)-2,6-naphthyridin-1-yl)ethynyl)indolin-2-one]	> 250	< 25	> 250	–	IC50 (CDK1/CCNB1; [4]): 25 to 250 nM
CCC1(CC)C(=O)Nc2cc(C#Cc3nccc4cnc(Nc5ccc(S(C)(=O)=O)cc5C)cc34)ccc21 [Example 395, 3,3-diethyl-6-((7-((2-methyl-4-(methylsulfonyl)phenyl)amino)-2,6-naphthyridin-1-yl)ethynyl)indolin-2-one]	> 250	< 25	> 250	> 250	–
Nc1ncccc1C#Cc1nccc2cnc(Nc3ccc(S(=O)(=O)C4CCC4)cc3)cc12 [Example 398, 5-((2-aminopyridin-3-yl)ethynyl)-N-(4-(cyclobutylsulfonyl)phenyl)-2,6-naphthyridin-3-amine]	> 250	–	> 250	> 250	IC50 (CDK2/CCNE1; x = IC50 25-250 nM, read-out: CDK2/CCNE IC50 (25-250 nM)): 25 to 250 nM
Cc1cc(Nc2cc3c(C#Cc4ccc5c(c4)NC(=O)C5(C)C)nccc3cn2)ccc1S(C)(=O)=O [Example 406, 3,3-dimethyl-6-((7-((3-methyl-4-(methylsulfonyl)phenyl)amino)-2,6-naphthyridin-1-yl)ethynyl)indolin-2-one]	> 250	< 25	> 250	> 250	–
CC(C)NS(=O)(=O)c1ccc(Nc2cc3c(C#Cc4cccnc4N)nccc3cn2)cc1 [Example 421, 4-((5-((2-aminopyridin-3-yl)ethynyl)-2,6-naphthyridin-3-yl)amino)-N-isopropylbenzenesulfonamide]	> 250	< 25	> 250	> 250	–
CC1(C)C(=O)Nc2cc(C#Cc3nccc4cnc(Nc5ccc(S(C)(=O)=O)cc5)cc34)cnc21 [Example 436, 3,3-dimethyl-6-((7-((4-(methylsulfonyl)phenyl)amino)-2,6-naphthyridin-1-yl)ethynyl)-1,3-dihydro-2H-pyrrolo[3,2-b]pyridin-2-one]	> 250	< 25	> 250	> 250	–

The next lines start with results.

IC50 (CDK6/CCND1; [3]) [nM]	IC50 (CDK2/CCNE1; [5]) [nM]	IC50 (CDK4/CCND3; [6]) [nM]	IC50 (CDK1/CCNB1; [7]) [nM]	Compound	further results
> 250	< 25	> 250	–	CC1(C)C(=O)Nc2nc(C#Cc3nccc4cnc(Nc5ccc(S(C)(=O)=O)cc5)cc34)ccc21 [Example 374, 3,3-dimethyl-6-((7-((4-(methylsulfonyl)phenyl)amino)-2,6-naphthyridin-1-yl)ethynyl)-1,3-dihydro-2H-pyrrolo[2,3-b]pyridin-2-one]	IC50 (CDK1/CCNB1; [4]): 25 to 250 nM
> 250	< 25	> 250	> 250	CS(=O)(=O)c1ccc(Nc2cc3c(C#Cc4cc5c(cc4F)C4(CC4)C(=O)N5)nccc3cn2)cc1 [Example 378, 5′-fluoro-6′-((7-((4-(methylsulfonyl)phenyl)amino)-2,6-naphthyridin-1-yl)ethynyl)spiro[cyclopropane-1,3′-indolin]-2′-one]	–
